# Results published in patent US10646459B2, “Sphingosine pathway modulating compounds for the treatment of cancers” (Enzo Biochem, Inc., priority 2017, dated 2020).
# How the values were obtained:
# [1] = tested on: primary human hepatocytes; assay: Apoptosis/necrosis assay, normal primary human hepatocytes; type: cell-based; conditions: 24 hours; SK1-I 10, 20, 40 μM; ozanimod 2.5, 5, 10 μM; normal (non-cancerous) cells
# Experimental: In still further experiments, the effects of SK1-I and ozanimod on normal (non-cancerous) primary human hepatocytes were investigated. Fresh human hepatocytes in a 12-well plate (HUF12) were obtained from Triangle Research Labs (Durham, N.C., USA; part of Lonza Group) and handled according to the supplier's protocol. The shipping medium was aspirated from each well and replaced with 1 ml per well of warm Hepatocyte Maintenance Medium. The plate was then placed in a 5% CO2 incubator at 37° C. and the hepatocytes were allowed to acclimate overnight. The Hepatocyte Maintenance Medium was replaced before treatment with drug or no-drug control, and the hepatocytes were treated with 0 μM (no-drug control), 10 μM, 20 μM, or 40 μM SK1-I or 0 μM, 2.5 μM, 5 μM, or 10 μM ozanimod for 24 hours under incubation. The cells were then harvested and analyzed using the GFP Certified® Apoptosis/Necrosis detection kit. The results are shown in FIGS. 19A-D for SK1-I and FIGS. 20A-D for ozanimod as follows.
# Hep 3B cells = assay: Apoptosis/necrosis assay (flow cytometry), Hep 3B cells; type: cell-based, human; conditions: 24 hours; SK1-I 10, 20, 40 μM; ozanimod 10, 20, 40 μM; ABC294640 10, 20, 40 μM; vs no-drug control
# Experimental: (§1) Apoptosis/necrosis assays evaluating the effect of different concentrations of each of ozanimod, ABC294640 and SK1-I on the four human hepatocellular carcinoma cell lines, Hep G2, Hep 3B, Huh 7 and PLC-PRF5 were also performed.
# (§2) The protocol used for the apoptosis assays was: • Plated cells in 6-well plates and incubated at 37° C. overnight. • Prepared […], 20 μM, and 40 μM. • SK1-I: 10 μM, 20 μM, and 40 μM. • Control: 0.2% DMSO. • Aspirated the medium from the 6-well plates and added test compound concentrations in media or 0.2% DMSO control in media. Incubated at 37° C. for 24 hours. • Collected and processed the cells following the flow cytometry protocol of the GFP Certified® Apoptosis/Necrosis detection kit from Enzo Life Sciences, Inc. (product no. ENZ-51002; Farmingdale, N.Y., USA).
# (§3) FIGS. 5-16 present graphs plotting the data from these 24-hour apoptosis assays for the different concentrations of compounds and no-drug control for the various cell lines. Channel FL2 picks up the apoptosis signal and channel FL3 picks up the necrosis signal. Data points in Quadrant 3 (Q3) in the graphs corresponds to cells undergoing apoptosis (cells positive for the apoptosis detection reagent of the assay). Data points in Quadrant 2 (Q2) in the graphs corresponds to cells that are positive for the apoptosis detection reagent and positive for the necrosis detection reagent of the assay (indicative of late-stage apoptosis).
# Huh7 cells = assay: Apoptosis/necrosis assay (flow cytometry), Huh7 cells; type: cell-based, human; conditions: 24 hours; SK1-I 10, 20, 40 μM; ozanimod 5, 10, 20 μM; ABC294640 10, 20, 40 μM; vs no-drug control
# Experimental: as §1
# (§4) The protocol used for the apoptosis assays was: • Plated cells in 6-well plates and incubated at 37° C. overnight. • Prepared concentrations of test compound and control compound DMSO in media. • Ozanimod: 5 μM, 10 μM, and 20 μM. • ABC294640: 10 μM, 20 μM, and 40 μM. • SK1-I: 10 μM, 20 μM, and 40 μM. • Control: 0.2% DMSO. • Aspirated the medium from the 6-well plates and added test compound concentrations in media or 0.2% DMSO control in media. Incubated at 37° C. for 24 hours. • Collected and processed the cells following the flow cytometry protocol of the GFP Certified® Apoptosis/Necrosis detection kit from Enzo Life Sciences, Inc. (product no. ENZ-51002; Farmingdale, N.Y., USA).
# as §3
# PLC-PRF5 cells = assay: Apoptosis/necrosis assay (flow cytometry), PLC-PRF5 cells; type: cell-based, human; conditions: 24 hours; SK1-I 10, 20, 40 μM; ozanimod 5, 10, 20 μM; ABC294640 10, 20, 40 μM; vs no-drug control
# Experimental: as §1, §4, §3
# Hep G2 cells = assay: Apoptosis/necrosis assay (flow cytometry), Hep G2 cells; type: cell-based, human; conditions: 24 hours; SK1-I 10, 20, 40 μM; ozanimod 10, 20, 40 μM; ABC294640 10, 20, 40 μM; vs no-drug control
# Experimental: as §1, §2, §3
# [2] = tested on: Jurkat cells (human T-cell leukemia cell line); assay: Apoptosis assay, Jurkat cells; type: cell-based; conditions: SK1-I 10, 20 μM; ozanimod 5, 10 μM; vs no-drug control
# Experimental: as §4
# as §3, with “apoptosis). […]” for “apoptosis).”
# [3] = tested on: human hepatocellular carcinoma cell lines Hep G2, Huh 7, and PLC-PRF5; assay: MTT cell viability assay (48 hours); type: cell-based; conditions: Hep G2, Huh 7, PLC-PRF5
# Experimental: The following MTT assay protocol was followed. • Prepared stock solutions: 50 mM ozanimod, 50 mM ABC294640, 10 mM SK1-I in DMSO. • Plated 20000 cells in 160 μl medium per well in 96-well plates for each cell line and incubated at 37° C. overnight. • Prepared compound serial dilutions: for ozanimod and ABC294640: dilute stock 50 mM 1:50 in medium to 1000 μM; for SK1-I, dilute stock 10 mM 1:50 in medium to […], them make serial 1:1.8 fold serial dilution to the titration. For negative control, diluted DMSO 1:50 to medium. • Added 40 μl negative control and serially titrated compounds to 160 μl of cells for each cell line. Performed in triplicate for each cell line. • Incubated at 37° C. for 72 hours. • Performed assay using Vybrant MTT Cell Proliferation Assay kit (V-13154) (Molecular Probes) from Thermo Fisher Scientific (Waltham, Mass. USA).
# 48-hour treatment MTT assays were also performed as follows.
Structure (SMILES),induction of apoptosis of primary human hepatocytes [1],induction of apoptosis in Hep 3B cells (Hep 3B cells),induction of apoptosis in Huh7 cells (Huh7 cells),induction of apoptosis in PLC-PRF5 cells (PLC-PRF5 cells),induction of apoptosis in Hep G2 cells (Hep G2 cells),induction of apoptosis in Jurkat cells [2],"killing of hepatocellular carcinoma cells (MTT), comparison with PF-543 [3]"
"CC(C)Oc1ccc(-c2nc(-c3cccc4c3CC[C@@H]4NCCO)no2)cc1C#N [Ozanimod, 5-[3-[(1S)-1-(2-hydroxyethylamino)-2,3-dihydro-1H-inden-4-yl]-1,2,4-oxadiazol-5-yl]-2-propan-2-yloxybenzonitrile]",did not induce apoptosis,strongly induced apoptosis,strongly induced apoptosis,strongly induced apoptosis,strongly induced apoptosis,strongly induced apoptosis,
"CCCCCc1ccc(/C=C/[C@H](O)[C@@H](CO)NC)cc1 [SK1-I, (E,2R,3S)-2-(methylamino)-5-(4-pentylphenyl)pent-4-ene-1,3-diol]",did not induce apoptosis,strongly induced apoptosis,strongly induced apoptosis,strongly induced apoptosis,strongly induced apoptosis,strongly induced apoptosis,more effective at killing hepatocellular carcinoma cells than PF-543
"O=C(NCc1ccncc1)C12CC3C[C@H](C1)CC(c1ccc(Cl)cc1)(C3)C2 [ABC294640, (7S)-3-(4-chlorophenyl)-N-(pyridin-4-ylmethyl)adamantane-1-carboxamide]",,did not substantially induce apoptosis,failed to induce apoptosis,did not substantially induce apoptosis,failed to induce apoptosis,,
